A short description of data set [1]: method code SF-ILT, from DOI: 10.1002/ardp.19763091008, PMID: 1008678.
Data set [2] can be described thus: method code SF-HPLC, from DOI: 10.1023/a:1013643013244, PMID: 11837695. The following applies: pH 6.4.
Data set [3] can be described thus: method code SF-AS, from DOI: 10.1016/j.ejmech.2010.07.027, PMID: 20705371.
Data set [4] is described as follows: method code SF-AS/IM, from DOI: 10.1002/jps.2600661205, PMID: 925928.
A short description of data set [5]: method code SF-AS, from DOI: 10.1007/bf00500291, PMID: 4270072. Conditions: pH 7.4.
Data set [6] can be described thus: method code SF-HPLC, from DOI: 10.1016/s0021-9673(99)01336-9, PMID: 10757301.
The nature of data set [7]: method code SF-HPLC, from DOI: 10.1021/jm300631e, PMID: 22734650. Conditions: pH 7.4.
Data set [8] in a line: method code SF-AS, from DOI: 10.1021/js960093b, PMID: 8897274. The following applies: pH 7.4.
Data set [9] can be described thus: method code SF, from DOI: 10.1016/j.ejmech.2012.08.015, PMID: 22960698.
A short description of data set [10]: method code SF-AS, from DOI: 10.1016/s0022-3565(25)32601-7, PMID: 7194909.
Data set [11] can be described thus: method code SF, from Tomlin, C. (2000). The Pesticide Manual (12th Edition) British Crop Protection Council, Bracknell.
Data set [12] in a line: method code SF-RC, from DOI: 10.1016/j.nucmedbio.2011.12.002, PMID: 22321533.
Assay in data set [13]: not given
This is another data set of the same source.

Assay in data set [14]: not given
This is another data set of the same source.

Data set [15] in a line: method code SF-HPLC, from DOI: 10.1248/cpb.32.1929. The following applies: pH 7.2.
A short description of data set [16]: method code SF-FL, from DOI: 10.1248/cpb.27.638, PMID: 554741.
Data set [17] is described as follows: method code SF, from DOI: 10.1016/s0223-5234(03)00044-8, PMID: 12750026. Conditions: pH 7.4.
A short description of data set [18]: method code SF-NMR, from DOI: 10.1016/j.jpba.2012.12.010, PMID: 23298914. The following applies: pH 7.6.
Assay in data set [19]: not given
The source holds these as a separate data set.

Assay in data set [20]: not given
This is another data set of the same source.

Data set [21] in a line: method code SF-FL, from DOI: 10.1002/jps.2600810104, PMID: 1352350.
Data set [22] in a line: method code SF, from DOI: 10.1021/jm061062o.s001, PMID: 17326614. Conditions: pH 7.4.
Assay in data set [23]: not given
This is another data set of the same source.

The nature of data set [24]: method code SF, from DOI: 10.1016/j.ejps.2016.06.024, PMID: 27373604. Conditions: pH 7.4.
Data set [25] is described as follows: method code SF-AS, from DOI: 10.1081/jlc-100100410. Conditions: pH 4.0.
Assay in data set [26]: not given
The source holds these as a separate data set.

Assay in data set [27]: not given
This is another data set of the same source.

Assay in data set [28]: not given
This is another data set of the same source.

Data set [29] can be described thus: method code SF-RC, from DOI: 10.1016/s0969-8051(01)00199-8, PMID: 11395310. Conditions: pH 7.4.
Data set [30] in a line: method code SF-AS, from PMID: 17401091. Conditions: pH 7.4.
Assay in data set [31]: not given
The source holds these as a separate data set.

Data set [32] is described as follows: method code SF, from DOI: 10.1016/s0006-3495(89)82875-9, PMID: 2470429. Conditions: pH 7.3.
The nature of data set [33]: method code SF-RC, from DOI: 10.1021/acs.jmedchem.6b00849, PMID: 27690428. Conditions: pH 7.4.
The nature of data set [34]: method code SF-AS, from Thiel, W. (1998). Structure and physicochemical properties of retigabine. Pharmazie, 53(12)865-868. Conditions: pH 7.4.
Data set [35] can be described thus: method code SF-GLC, from Jha, T.; Debnath, A.; Mazumdar, A.; Sengupta, C.; De, A. (1986). Hansch analysis of antineoplastic agents, 5-N-substituted-2-p-substituted benzenesulfonyl-L-glutamines. Ind. J. Chem., Sect. B, ….
Assay in data set [36]: not given
The source holds these as a separate data set.

Data set [37] can be described thus: method code SF, from DOI: 10.1016/j.ijpharm.2011.07.043, PMID: 21839822. Conditions: pH 7.4.
Assay in data set [38]: not given
This is another data set of the same source.

Data set [39] is described as follows: method code SF-AS, from Galdino, S.; Pitta, I.; Luc-Duc, C. (1986). 5-Benzylidene pyrrolones, furanones and thiopenones. II. Quantitative structure-antifungal correlation. Farmaco [Sci], 41(1)59-68.

This note sets out measurements from the SangsterLogP compilation.

By logP is commonly meant the decadic logarithm of the partition coefficient of the neutral form, usually between octanol and water. A low value points to lower lipophilicity. What is called logD is the decadic logarithm of the distribution of all forms, ionised or not, between an organic phase and buffer at a given pH. Higher therefore signals higher lipophilicity.

Turning to `CCNC(=O)C1C2C=CC(C2)C1C(=O)N(CC)CC` (stereo not given), in data set [1], the lipophilicity (logP) turned out to be 0.99.

`CCCN1C(=O)CCC(N2C(=O)c3ccccc3C2=O)C1=O` (stereo not given) showed a logD in [2] of 2.11.

Consider `CC(C)(C)c1ccc(O)c(CN2CCOCC2)c1`, for which the logP in data set [3] was determined as 1.96.

`CC1(C)S[C@@H]2[C@H](NC(=O)COc3ccccc3)C(=O)N2[C@H]1C(=O)O` showed a logP in data set [4] of 1.95.

In [5], `CN1C(=O)CN=C(C2=CCCCC2)c2cc(Cl)ccc21` registered a logD of 2.76.

As to `CO/N=C(\C(=O)N[C@@H]1C(=O)N2C(C(=O)O)=C(COC(N)=O)CS[C@H]12)c1ccco1`, in [6], the logP is -0.17.

In turn, `C=CCC1(c2cccc(C3(C(F)(F)F)N=N3)c2)C(=O)NC(=O)N(C)C1=O` (stereo not given) came in with a logD in data set [7] of 3.79.

`N#CN=C1NC(=O)C(c2ccccc2)(c2ccccc2)N1` displayed a log distribution coefficient (logD) in data set [8] of 1.16.

For the compound `O=C(CC1OC(=O)c2ccccc21)c1ccc(Cl)c(Cl)c1` (stereo not given), in data set [9], the logP is 4.24.

`OC1(c2ccc(Cl)cc2)c2ccccc2C2=NCCN21` (stereo not given): in data set [10], the logP stood at 1.81.

In the case of `COc1ccc2c(c1)OCC2NC(=O)CN1CCCC1` (stereo not given), the logP stood at 1.92.

`COCC(=O)N(c1c(C)cccc1C)C(C)C(=O)OC` (racemic): the logP in data set [11] is 1.75.

`Cc1cn(C2CC(O)C(CO)O2)c(=O)n(Cc2cn(CCF)nn2)c1=O` (stereo not given): the log partition coefficient (logP) in [12] was -1.22.

Regarding `CC(C)(C)C(O)[C@H](Cc1ccc(Cl)cc1)n1cncn1` (stereo in doubt), the logP in [13] was found to be 3.26.

Turning to `O=C(O)Cc1ccc2c(c1)C(=O)c1ccccc1CS2`, in [14], the logP was determined as 2.97.

`COC(COC(N)=O)C1=C(N2CC2)C(=O)C(C)=C(N2CC2)C1=O` (stereo not given) came in with a pH-dependent lipophilicity (logD) in [15] of 0.

In turn, `c1ccc(Nc2cccc3ccccc23)cc1` had a logP in data set [16] of 4.2.

`CNC(=O)Oc1ccc2c(c1)C1(C)CCN(C)C1N2C` (stereo not given): the logD in [17] came out at 0.97.

In data set [18], `COC(=O)C(N)Cc1cc(I)c(Oc2ccc(O)c(I)c2)c(I)c1` (stereo not given) gave a logD of 2.6.

For the compound `COc1ccc(C(=O)NNC(=O)c2ccc(OC)cc2)cc1`, in data set [19], the logP was found to be 1.55.

In data set [20], `CCOP(=S)(NC(C)C)Oc1ccccc1C(=O)OC(C)C` (stereo not given) came in with a logP of 3.7.

`CN1CCN=C(c2ccccc2)c2cc(Cl)ccc21` had a logP in [21] of 3.3.

`CS(=O)(=O)CCN(CCBr)c1cc(C(=O)NCC(O)CO)c([N+](=O)[O-])cc1[N+](=O)[O-]` (stereo not given) had a logD in data set [22] of -0.05.

In data set [23], `Cc1nc(N)nc(N)c1C12CC3CC(CC(C3)C1)C2` had a logP of 2.64.

In turn, `NC(=O)C1c2ccccc2CCc2ccccc21` gave a logD in data set [24] of 1.67.

`CC(C)Oc1ccc(C(=O)NS(=O)(=O)c2ccc(N)cc2)cc1` came in with a log distribution coefficient (logD) in [25] of 1.21.

In turn, `Cc1ccc2oc(-c3ccccc3C(=O)O)c(Br)c2c1` showed a logP in data set [26] of 5.19.

`CN(C)Cc1ccccc1Sc1ccc(I)cc1CO` yielded a logP in [27] of 2.67.

`c1cc2ccc1CCc1ccc(cc1)CC2`: the logP in data set [28] stood at 4.61.

In the case of `CCN1CCC[C@H]1CNC(=O)c1c(OC)ccc(I)c1O`, in data set [29], the logD is 2.85.

With `CN(C)c1ncc(C=Cc2nc3ccc(OCCF)cc3o2)s1`, in data set [30], the logD worked out at 1.75.

In [31], `O=C(O)Cc1ccc2c(c1O)C(=O)c1c(O)cccc1C2` registered a logP of 3.1.

With `COC(=O)C1=C(C)NC(C)=C([N+](=O)[O-])C1c1ccccc1C(F)(F)F` (stereo not given), the logD in data set [32] stood at 2.46.

In data set [33], `N#Cc1ccc(N(Cc2ccc(I)cc2)n2cnnc2)cc1` yielded a logD of 2.48.

Take `CCOC(=O)Nc1ccc(NCc2ccc(F)cc2)cc1N`: the logD in data set [34] came to 2.17.

For the compound `CCCNC(=O)CCC(NS(=O)(=O)c1ccc(C)cc1)C(=O)O` (stereo not given), in data set [35], the logP is 0.13.

Compound `CCc1cccc(C)c1N(C(=O)CCl)C(C)COC` (stereo not given) showed a logP in [36] of 3.09.

Compound `CCCCCCCCNC(=O)c1ccccc1O` had a logD in data set [37] of 3.7.

For the compound `CCN1C=CC(=C2C(=O)c3ccc(Cl)cc3C2=O)C=C1`, in data set [38], the logP amounted to 2.76.

In data set [39], `CCOC(=O)C1=C(C)O/C(=C\c2ccc(OC)cc2)C1=O` came in with a logP of 2.96.
